These results are taken from patent US20040259819A1, “Novel heterocyclic fluoroglycoside derivatives, medicaments containing these compounds, and the use thereof” (Aventis Pharma Deutschland GmbH, priority 2002, published 2004).

SMILES strings stand for the structures. pIC50: −log10 of the molar value.

The assay deals with T1, SGLT (Oryctolagus cuniculus, UniProt P11170).
T1 construct: To prepare brush border membranes from rabbit small intestine, rabbits were sacrificed; from tissue; host or cells: rabbit small intestine mucosa, brush border membrane vesicles (Mg2+ precipitation)
T1 sequence (P11170 1-662): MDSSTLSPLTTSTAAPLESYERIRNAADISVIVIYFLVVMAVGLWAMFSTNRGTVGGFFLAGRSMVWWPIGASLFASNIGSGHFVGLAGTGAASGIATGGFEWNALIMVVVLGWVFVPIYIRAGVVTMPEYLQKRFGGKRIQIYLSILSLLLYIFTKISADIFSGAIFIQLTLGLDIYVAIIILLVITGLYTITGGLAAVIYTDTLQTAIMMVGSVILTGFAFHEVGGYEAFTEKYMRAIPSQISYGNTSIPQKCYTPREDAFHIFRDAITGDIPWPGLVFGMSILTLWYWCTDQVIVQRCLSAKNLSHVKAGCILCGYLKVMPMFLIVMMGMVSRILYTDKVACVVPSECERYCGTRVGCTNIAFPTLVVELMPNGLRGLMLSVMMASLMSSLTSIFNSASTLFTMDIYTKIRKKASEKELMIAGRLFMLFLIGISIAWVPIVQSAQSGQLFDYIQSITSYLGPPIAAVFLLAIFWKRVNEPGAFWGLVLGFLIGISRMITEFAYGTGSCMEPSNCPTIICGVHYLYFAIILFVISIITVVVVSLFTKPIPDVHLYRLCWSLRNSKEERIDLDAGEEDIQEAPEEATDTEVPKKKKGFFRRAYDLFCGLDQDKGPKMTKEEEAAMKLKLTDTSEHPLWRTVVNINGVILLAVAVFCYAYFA
Briefly: Glucose uptake transport assay on rabbit small intestine brush border membrane vesicles. The class given is biochemical. The following applies: uptake of 10 μM [14C]D glucose into rabbit small intestine brush border membrane vesicles, 15 seconds, 30° C., membrane filtration method.
Protocol: Preparation of brush border membrane vesicles from the small intestine of rabbits, rats and pigs
Preparation of brush border membrane vesicles from the intestinal cells of the small intestine was carried out by the so-called Mg^2+ precipitation method. The mucosa of the small intestine was scraped off and suspended in 60 ml of ice-cold Tris/HCl buffer (pH 7.1)/300 mM mannitol, 5 mM EGTA. Dilution to 300 ml with ice-cold distilled water was followed by homogenization with an Ultraturrax (18 shaft, IKA Werk Staufen, FRG) at 75% of the max. power for 2×1 minute, while cooling in ice. After addition of 3 ml of 1M MgCl2 solution (final concentration 10 mM), the mixture is left to stand at 0° C. for exactly 15 minutes. Addition of Mg^2+ causes the cell membranes to aggregate and precipitate with the exception of the brush border membranes. After centrifugation at 3 000×g (5 000 rpm, SS-34 rotor) for 15 minutes, the precipitate is discarded and the supernatant, which contains the brush border membranes, is centrifuged at 26 700×g (15 000 rpm, SS-34 rotor) for 30 minutes. The supernatant is discarded, and the precipitate is rehomogenized in 60 ml of 12 mM Tris/HCl buffer (pH 7.1)/60 mM mannitol, 5 mM EGTA using a Potter Elvejhem homogenizer (Braun, Melsungen, 900 rpm, 10 strokes). Addition of 0.1 ml of 1M MgCl2 solution and incubation at 0° C. for 15 minutes is followed by centrifugation again at 3 000×g for 15 minutes. The supernatant is then centrifuged again at 46 000×g (20 000 rpm, SS-34 rotor) for 30 minutes. The precipitate is taken up in 30 ml of 20 mM Tris/Hepes buffer (pH 7.4)/280 mM mannitol and homogeneously resuspended by 20 strokes in a Potter Elvejhem homogenizer at 1 000 rpm. After centrifugation at 48 000×g (20 000 rpm, SS-34 rotor) for 30 minutes, the precipitate was taken up in 0.5 to 2 ml of Tris/Hepes buffer (pH 7.4)/280 mM mannitol (final concentration 20 mg/ml) and resuspended using a tuberculin syringe with a 27 gauge needle. […]
The uptake of [^14C]-labeled glucose into brush border membrane vesicles was measured by the membrane filtration method. […]
Take `COc1ccc(Cc2sccc2OC2OC(CO)C(F)C(O)C2O)cc1` (single isomer, unassigned) [Example 1]: the pIC50 (usually −log10 of the IC50, conventionally taken in molar units) was 5.40.
`COc1ccc(Cc2sccc2OC2OC(CO)C(F)C(O)C2O)cc1` (single isomer, unassigned) [Example 3]: the pIC50 is 6.52.
Next, `COc1ccc(Cc2sc3ccccc3c2OC2OC(CO)C(F)C(O)C2O)cc1` (stereo not drawn) [Example 2]: 6.40.
